From ChEMBL document CHEMBL5131515, “Identification of Pyridinyltriazine Derivatives as Potent panFGFR Inhibitors against Gatekeeper Mutants for Overcoming Drug Resistance” (J Med Chem, 2022)
pIC50: −log10 of the molar value.

Columns and labels:
[1] = system: BaF3; test: Antiproliferative activity against mouse BaF3 cells harboring TEL-FGFR3 assessed as cell growth inhibition by CellTiter-Glo assay; assay type: functional
[2] = system: J82; test: Antiproliferative activity against human J82 cells harboring FGFR3 K652E mutant assessed as cell growth inhibition by CellTiter-Glo assay; assay type: functional
[3] = system: BaF3; test: Antiproliferative activity against mouse BaF3 cells harboring TEL-FGFR4 N535K mutant assessed as cell growth inhibition by CellTiter-Glo assay; assay type: functional
[4] = system: BaF3; test: Antiproliferative activity against mouse BaF3 cells harboring TEL-FGFR4 V550E mutant assessed as cell growth inhibition by CellTiter-Glo assay; assay type: functional
[5] = system: KMS-11; test: Antiproliferative activity against human KMS-11 cells harboring FGFR3 Y373C mutant assessed as cell growth inhibition by CellTiter-Glo assay; assay type: functional
[6] = system: BaF3; test: cells; assay type: functional; settings: Mus musculus
[7] = system: AN3-CA; test: Antiproliferative activity against human AN3-CA cells harboring FGFR2 K310R/N549K mutant assessed as cell growth inhibition by CellTiter-Glo assay; assay type: functional
[8] = Antiproliferative activity against mouse BaF3 cells assessed as cell growth inhibition by CellTiter-Glo assay
[9] = molecular target: Fibroblast growth factor receptor 3 (Homo sapiens, UniProt P22607); test: Inhibition of wild-type FGFR3 (unknown origin) by radiometric kinase activity assay
[10] = system: Fibroblast growth factor receptor 3 (Homo sapiens), P22607 [V555M]; test: Inhibition of FGFR3 V555M mutant (unknown origin) at 10 uM by radiometric kinase activity assay relative to control
[11] = molecular target: Fibroblast growth factor receptor 2 (Homo sapiens, UniProt P21802, N549H)
[12] = molecular target: Fibroblast growth factor receptor 2 (Homo sapiens, UniProt P21802, V564F)
Description: Inhibition of FGFR2 V564F mutant (unknown origin) by radiometric kinase activity assay

[13] = system: Fibroblast growth factor receptor 2 (Homo sapiens), P21802 [V564F]; test: Inhibition of FGFR2 V564F mutant (unknown origin) at 10 uM by radiometric kinase activity assay relative to control
[14] = molecular target: Fibroblast growth factor receptor 3 (Homo sapiens, UniProt P22607, V555M)
[15] = molecular target: Fibroblast growth factor receptor 3 (Homo sapiens, UniProt P22607, K650M)
[16] = molecular target: Fibroblast growth factor receptor 2 (Homo sapiens, UniProt P21802); test: Inhibition of wild-type FGFR2 (unknown origin) by radiometric kinase activity assay
[17] = molecular target: Fibroblast growth factor receptor 4 (Homo sapiens, UniProt P22455); test: Inhibition of wild-type FGFR4 (unknown origin) by radiometric kinase activity assay
[18] = molecular target: Fibroblast growth factor receptor 3 (Homo sapiens, UniProt P22607, K650E)
Sequence of Fibroblast growth factor receptor 3 (Homo sapiens, UniProt P22607, K650E) (P22607 23-806 K650E limits assumed): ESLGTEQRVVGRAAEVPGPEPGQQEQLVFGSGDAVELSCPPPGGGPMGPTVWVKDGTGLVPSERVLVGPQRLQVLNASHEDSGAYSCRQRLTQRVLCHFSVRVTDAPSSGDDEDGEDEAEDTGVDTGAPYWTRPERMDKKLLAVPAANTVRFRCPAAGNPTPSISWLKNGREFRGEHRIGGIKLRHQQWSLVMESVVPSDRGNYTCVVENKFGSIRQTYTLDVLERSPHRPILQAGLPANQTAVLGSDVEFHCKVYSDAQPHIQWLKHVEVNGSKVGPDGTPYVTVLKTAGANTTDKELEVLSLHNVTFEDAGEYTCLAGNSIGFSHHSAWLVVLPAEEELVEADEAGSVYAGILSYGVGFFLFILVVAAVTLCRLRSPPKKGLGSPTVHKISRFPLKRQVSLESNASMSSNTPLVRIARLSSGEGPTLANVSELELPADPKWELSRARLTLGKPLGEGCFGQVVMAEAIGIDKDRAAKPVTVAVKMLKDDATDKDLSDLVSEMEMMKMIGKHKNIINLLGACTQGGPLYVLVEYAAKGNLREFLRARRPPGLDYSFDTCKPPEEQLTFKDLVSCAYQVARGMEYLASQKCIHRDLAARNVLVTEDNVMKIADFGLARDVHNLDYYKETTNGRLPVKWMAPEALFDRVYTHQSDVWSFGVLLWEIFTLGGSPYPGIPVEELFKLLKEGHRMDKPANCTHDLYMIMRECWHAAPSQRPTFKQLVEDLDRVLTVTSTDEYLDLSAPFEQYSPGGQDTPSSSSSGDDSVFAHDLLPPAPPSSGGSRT

Sequence of Fibroblast growth factor receptor 3 (Homo sapiens, UniProt P22607) (P22607 whole entry): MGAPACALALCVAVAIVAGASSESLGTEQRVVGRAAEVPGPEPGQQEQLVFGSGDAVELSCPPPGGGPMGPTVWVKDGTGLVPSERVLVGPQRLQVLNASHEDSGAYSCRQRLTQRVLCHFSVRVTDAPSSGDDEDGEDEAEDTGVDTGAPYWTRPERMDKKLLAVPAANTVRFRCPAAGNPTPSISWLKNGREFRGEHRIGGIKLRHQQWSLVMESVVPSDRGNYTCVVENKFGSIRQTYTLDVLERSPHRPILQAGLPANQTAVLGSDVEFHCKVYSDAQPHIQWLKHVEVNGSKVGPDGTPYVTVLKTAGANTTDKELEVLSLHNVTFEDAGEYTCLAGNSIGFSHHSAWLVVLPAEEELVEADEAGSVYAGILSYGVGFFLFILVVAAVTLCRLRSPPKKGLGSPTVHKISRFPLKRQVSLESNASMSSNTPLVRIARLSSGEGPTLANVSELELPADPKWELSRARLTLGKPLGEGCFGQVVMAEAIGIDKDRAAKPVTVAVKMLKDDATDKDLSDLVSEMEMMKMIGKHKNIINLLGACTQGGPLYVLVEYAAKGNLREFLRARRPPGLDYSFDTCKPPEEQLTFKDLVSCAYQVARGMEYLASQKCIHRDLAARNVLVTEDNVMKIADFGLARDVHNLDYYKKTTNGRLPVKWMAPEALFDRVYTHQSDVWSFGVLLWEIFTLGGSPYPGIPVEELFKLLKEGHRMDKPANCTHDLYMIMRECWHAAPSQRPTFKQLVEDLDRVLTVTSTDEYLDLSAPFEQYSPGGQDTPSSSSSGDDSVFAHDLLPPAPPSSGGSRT
Sequence of Fibroblast growth factor receptor 2 (Homo sapiens), P21802 [V564F] (P21802 whole entry V564F): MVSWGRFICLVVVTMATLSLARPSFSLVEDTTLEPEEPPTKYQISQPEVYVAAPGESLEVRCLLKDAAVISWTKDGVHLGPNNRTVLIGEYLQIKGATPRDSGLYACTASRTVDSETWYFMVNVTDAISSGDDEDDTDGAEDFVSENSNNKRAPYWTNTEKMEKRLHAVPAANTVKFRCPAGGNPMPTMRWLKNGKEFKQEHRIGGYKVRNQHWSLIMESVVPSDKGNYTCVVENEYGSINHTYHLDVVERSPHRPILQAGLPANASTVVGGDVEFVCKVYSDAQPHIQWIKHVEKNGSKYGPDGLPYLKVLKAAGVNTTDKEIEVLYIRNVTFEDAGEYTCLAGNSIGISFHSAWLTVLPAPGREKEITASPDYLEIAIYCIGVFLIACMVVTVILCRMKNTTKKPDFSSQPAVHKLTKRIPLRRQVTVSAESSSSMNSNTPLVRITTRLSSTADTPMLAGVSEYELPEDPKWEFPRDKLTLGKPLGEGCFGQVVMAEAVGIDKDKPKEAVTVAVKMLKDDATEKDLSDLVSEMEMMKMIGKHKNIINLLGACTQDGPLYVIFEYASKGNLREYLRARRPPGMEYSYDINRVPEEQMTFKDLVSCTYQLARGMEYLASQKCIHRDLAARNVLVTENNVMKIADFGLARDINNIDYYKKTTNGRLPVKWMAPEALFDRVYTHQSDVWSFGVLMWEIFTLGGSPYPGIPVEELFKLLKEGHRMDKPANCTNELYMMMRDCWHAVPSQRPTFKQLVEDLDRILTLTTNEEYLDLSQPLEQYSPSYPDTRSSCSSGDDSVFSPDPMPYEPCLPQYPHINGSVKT
Sequence of Fibroblast growth factor receptor 3 (Homo sapiens), P22607 [V555M] (P22607 whole entry V555M): as the sequence (P22607 whole entry) above, with V555M counted along it
Sequence of Fibroblast growth factor receptor 2 (Homo sapiens, UniProt P21802, N549H) (P21802 22-821 N549H limits assumed): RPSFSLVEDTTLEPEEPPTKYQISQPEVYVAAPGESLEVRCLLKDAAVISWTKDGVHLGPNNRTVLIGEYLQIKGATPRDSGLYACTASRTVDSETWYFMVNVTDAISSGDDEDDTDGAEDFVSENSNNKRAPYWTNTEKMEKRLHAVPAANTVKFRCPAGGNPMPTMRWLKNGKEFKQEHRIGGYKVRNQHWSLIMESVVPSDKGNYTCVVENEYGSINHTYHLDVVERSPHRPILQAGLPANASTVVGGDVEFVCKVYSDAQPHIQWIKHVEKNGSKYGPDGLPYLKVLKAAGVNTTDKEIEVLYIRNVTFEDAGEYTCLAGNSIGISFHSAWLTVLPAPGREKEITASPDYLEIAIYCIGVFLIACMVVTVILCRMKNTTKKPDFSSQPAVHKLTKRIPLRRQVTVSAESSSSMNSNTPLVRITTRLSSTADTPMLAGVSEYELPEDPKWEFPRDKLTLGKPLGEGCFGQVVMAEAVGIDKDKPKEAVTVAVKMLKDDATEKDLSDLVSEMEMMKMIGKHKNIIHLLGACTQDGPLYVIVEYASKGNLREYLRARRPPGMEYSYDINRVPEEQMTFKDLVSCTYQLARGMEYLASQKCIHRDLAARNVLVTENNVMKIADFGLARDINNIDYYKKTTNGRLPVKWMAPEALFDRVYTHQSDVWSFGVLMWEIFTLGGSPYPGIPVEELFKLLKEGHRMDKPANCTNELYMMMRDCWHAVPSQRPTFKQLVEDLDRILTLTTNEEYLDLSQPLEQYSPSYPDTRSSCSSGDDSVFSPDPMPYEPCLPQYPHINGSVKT
Sequence of Fibroblast growth factor receptor 2 (Homo sapiens, UniProt P21802, V564F) (P21802 22-821 V564F limits assumed): as the sequence (P21802 22-821 N549H limits assumed) above, with H528N, V543F counted along it
Sequence of Fibroblast growth factor receptor 3 (Homo sapiens, UniProt P22607, V555M) (P22607 23-806 V555M limits assumed): as the sequence (P22607 23-806 K650E limits assumed) above, with V533M, E628K counted along it
Sequence of Fibroblast growth factor receptor 2 (Homo sapiens, UniProt P21802) (P21802 whole entry): as the sequence (P21802 whole entry V564F) above, with F564V counted along it
Sequence of Fibroblast growth factor receptor 4 (P22455 whole entry): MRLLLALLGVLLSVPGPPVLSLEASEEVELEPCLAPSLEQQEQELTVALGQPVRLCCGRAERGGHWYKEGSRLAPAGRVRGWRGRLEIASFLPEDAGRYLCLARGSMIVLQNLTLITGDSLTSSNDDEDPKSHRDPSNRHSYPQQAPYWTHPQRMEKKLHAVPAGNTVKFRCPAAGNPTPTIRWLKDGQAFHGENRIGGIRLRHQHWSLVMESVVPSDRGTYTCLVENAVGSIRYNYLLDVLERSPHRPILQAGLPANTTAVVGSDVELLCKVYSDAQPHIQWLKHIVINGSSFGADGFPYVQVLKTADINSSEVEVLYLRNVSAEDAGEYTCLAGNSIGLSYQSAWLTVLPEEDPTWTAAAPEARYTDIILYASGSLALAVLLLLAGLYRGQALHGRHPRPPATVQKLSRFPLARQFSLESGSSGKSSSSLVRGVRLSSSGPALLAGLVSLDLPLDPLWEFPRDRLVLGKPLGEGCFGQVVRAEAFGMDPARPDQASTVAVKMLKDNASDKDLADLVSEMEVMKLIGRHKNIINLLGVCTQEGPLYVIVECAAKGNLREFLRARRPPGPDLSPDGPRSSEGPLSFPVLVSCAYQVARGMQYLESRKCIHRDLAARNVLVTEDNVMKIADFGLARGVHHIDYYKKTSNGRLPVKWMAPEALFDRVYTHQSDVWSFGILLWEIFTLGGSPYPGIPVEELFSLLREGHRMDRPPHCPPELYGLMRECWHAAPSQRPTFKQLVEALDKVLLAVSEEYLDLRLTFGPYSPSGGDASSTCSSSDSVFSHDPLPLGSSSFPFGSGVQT
Sequence of Fibroblast growth factor receptor 3 (Homo sapiens, UniProt P22607, K650M) (P22607 23-806 K650M limits assumed): as the sequence (P22607 23-806 K650E limits assumed) above, with E628M counted along it

CCN1C(=O)N(c2c(F)c(OC)cc(OC)c2F)Cc2cnc3[nH]c(CN4CCOCC4)cc3c21 [PEMIGATINIB]
GI50 [1]: 5 nM | GI50 [2]: 4290 nM | GI50 [3]: 4500 nM | GI50 [4]: > 5000 nM | GI50 [5]: 232 nM | GI50 [6]: 2070 nM | GI50 [7]: 132 nM | GI50 ([8]; BaF3 cells): > 5000 nM

COc1cc(N2C[C@@H](C)N[C@@H](C)C2)ccc1Nc1ncnc(-c2cccnc2Nc2c(Cl)c(OC)cc(OC)c2Cl)n1
GI50 [1]: 286 nM | GI50 [2]: 3330 nM | pIC50 [9]: 7.62 | GI50 [5]: 872 nM | GI50 [6]: 2710 nM | inhibition [10]: < 50% | GI50 [7]: 818 nM | pIC50 [11]: 7.48 | pIC50 [12]: 5.45 | GI50 ([8]; BaF3 cells): 2730 nM

COc1cccc(Nc2ncnc(-c3cccnc3Nc3c(Cl)c(OC)cc(OC)c3Cl)n2)c1
GI50 [1]: 30 nM | GI50 [2]: 4880 nM | pIC50 [9]: 8.01 | inhibition [13]: < 50% | GI50 [5]: 895 nM | GI50 [6]: > 5000 nM | inhibition [10]: < 50% | GI50 [7]: 202 nM | pIC50 [11]: 8.20 | GI50 ([8]; BaF3 cells): > 5000 nM

COc1cc(N2CCN(C)CC2)ccc1Nc1ncnc(-c2cccnc2Nc2c(Cl)c(OC)cc(OC)c2Cl)n1
GI50 [1]: 282 nM | GI50 [2]: 7260 nM | pIC50 [9]: 7.69 | GI50 [5]: 730 nM | GI50 [6]: 2130 nM | pIC50 [14]: 5.11 | GI50 [7]: 689 nM | pIC50 [11]: 7.12 | pIC50 [12]: 5.58 | GI50 ([8]; BaF3 cells): 2790 nM

COc1cc(OC)c(Cl)c(Nc2ncccc2-c2ncnc(Nc3cnn(C)c3)n2)c1Cl
GI50 [1]: 5 nM | GI50 [2]: 2320 nM | pIC50 [9]: 8.62 | GI50 [5]: 315 nM | GI50 [6]: 731 nM | pIC50 [14]: 6.79 | GI50 [7]: 31 nM | pIC50 [11]: > 9.30 | pIC50 [12]: 5.55 | GI50 ([8]; BaF3 cells): > 5000 nM

COc1cc(OC)c(Cl)c(Nc2ncccc2-c2ncnc(Nc3ccc(N4CCOCC4)cc3)n2)c1Cl
GI50 [1]: 393 nM | GI50 [2]: 22400 nM | pIC50 [9]: 7.80 | inhibition [13]: < 50% | GI50 [5]: 12200 nM | GI50 [6]: > 5000 nM | inhibition [10]: < 50% | GI50 [7]: 1130 nM | pIC50 [11]: 7.42 | GI50 ([8]; BaF3 cells): > 5000 nM

COc1cc(OC)c(Cl)c(Nc2ncccc2-c2ncnc(Nc3ccc(N(C)C)cc3)n2)c1Cl
GI50 [1]: 164 nM | GI50 [2]: 14800 nM | pIC50 [9]: 7.82 | inhibition [13]: < 50% | GI50 [5]: > 50000 nM | GI50 [6]: > 5000 nM | inhibition [10]: < 50% | GI50 [7]: 591 nM | pIC50 [11]: 7.83 | GI50 ([8]; BaF3 cells): > 5000 nM

CCN1CCN(c2cccc(Nc3ncnc(-c4cccnc4Nc4c(Cl)c(OC)cc(OC)c4Cl)n3)c2)CC1
GI50 [1]: 18 nM | GI50 [2]: 1110 nM | GI50 [3]: 1690 nM | pIC50 [15]: 7.35 | pIC50 [16]: > 9.30 | pIC50 [17]: 6.99 | pIC50 [9]: 9.24 | GI50 [4]: 994 nM | GI50 [5]: 190 nM | GI50 [6]: 686 nM | pIC50 [14]: 6.87 | pIC50 [18]: > 9.30 | GI50 [7]: 85 nM | pIC50 [11]: 9.22 | pIC50 [12]: 6.24 | GI50 ([8]; BaF3 cells): 3630 nM

COc1cc(OC)c(Cl)c(Nc2ncccc2-c2ncnc(N)n2)c1Cl
GI50 [1]: 276 nM | GI50 [2]: 6560 nM | pIC50 [9]: 7.95 | inhibition [13]: < 50% | GI50 [5]: 3270 nM | GI50 [6]: > 5000 nM | inhibition [10]: < 50% | GI50 [7]: 753 nM | pIC50 [11]: 7.50 | GI50 ([8]; BaF3 cells): > 5000 nM

COc1cc(OC)c(Cl)c(Nc2ncccc2-c2ncnc(Nc3ccc(N4CCN(C(C)=O)CC4)cc3)n2)c1Cl
GI50 [1]: 30 nM | GI50 [2]: 6010 nM | pIC50 [9]: 8.09 | GI50 [5]: 1500 nM | GI50 [6]: 3020 nM | pIC50 [14]: 5.95 | GI50 [7]: 63 nM | pIC50 [11]: 8.35 | pIC50 [12]: 5.52 | GI50 ([8]; BaF3 cells): > 5000 nM

COc1cc(OC)c(Cl)c(Nc2ncccc2-c2ncnc(Nc3ccc(N4CCC(O)CC4)cc3)n2)c1Cl
GI50 [1]: 40 nM | GI50 [2]: 8250 nM | pIC50 [9]: 8.08 | GI50 [5]: 1270 nM | GI50 [6]: 3880 nM | pIC50 [14]: 5.74 | GI50 [7]: 117 nM | pIC50 [11]: 8.22 | pIC50 [12]: 5.66 | GI50 ([8]; BaF3 cells): > 5000 nM

COc1cc(OC)cc(N(CCNC(C)C)c2ccc3ncc(-c4cnn(C)c4)nc3c2)c1 [ERDAFITINIB]
GI50 [1]: 5 nM | GI50 [2]: 3800 nM | GI50 [3]: 4010 nM | GI50 [4]: > 5000 nM | GI50 [5]: 390 nM | GI50 [6]: 761 nM | GI50 [7]: 48 nM | GI50 ([8]; baf3): > 5000 nM

C=CCn1cc(Nc2ncnc(-c3cccnc3Nc3c(Cl)c(OC)cc(OC)c3Cl)n2)cn1
GI50 [1]: 10 nM | GI50 [2]: 991 nM | pIC50 [9]: 8.85 | GI50 [5]: 341 nM | GI50 [6]: 1820 nM | pIC50 [14]: 5.77 | GI50 [7]: 18800 nM | pIC50 [11]: 7.59 | pIC50 [12]: 5.51 | GI50 ([8]; BaF3 cells): > 5000 nM

COc1cc(OC)c(Cl)c(Nc2ncccc2-c2ncnc(NCCN(C)C)n2)c1Cl
GI50 [1]: 4040 nM | GI50 [2]: 11200 nM | pIC50 [9]: 6.08 | inhibition [13]: < 50% | GI50 [5]: 3570 nM | GI50 [6]: > 5000 nM | inhibition [10]: < 50% | GI50 [7]: 1940 nM | pIC50 [11]: 6.43 | GI50 ([8]; BaF3 cells): > 5000 nM

CCN1CCN(c2ccc(Nc3cc(-c4cccnc4Nc4c(Cl)c(OC)cc(OC)c4Cl)ncn3)cc2)CC1
GI50 [1]: 8 nM | GI50 [2]: 4290 nM | GI50 [3]: 3370 nM | pIC50 [16]: 8.74 | pIC50 [17]: 7.30 | pIC50 [9]: 8.54 | GI50 [4]: 3200 nM | GI50 [5]: 479 nM | GI50 [6]: 2000 nM | pIC50 [14]: 6.33 | pIC50 [18]: 8.07 | GI50 [7]: 263 nM | pIC50 [11]: 8.22 | GI50 ([8]; BaF3 cells): 3250 nM

COc1cc(OC)c(Cl)c(Nc2ncccc2-c2ncnc(Nc3ccccc3)n2)c1Cl
GI50 [1]: 16 nM | GI50 [2]: 3620 nM | pIC50 [9]: 8.34 | inhibition [13]: < 50% | GI50 [5]: 1420 nM | GI50 [6]: > 5000 nM | inhibition [10]: < 50% | GI50 [7]: 136 nM | pIC50 [11]: 8.60 | GI50 ([8]; BaF3 cells): > 5000 nM

COc1cc(OC)c(Cl)c(Nc2ncccc2-c2ncnc(Nc3ccc(N4CCOCC4)nc3)n2)c1Cl
GI50 [1]: 664 nM | GI50 [2]: 11500 nM | pIC50 [9]: 8.06 | inhibition [13]: < 50% | GI50 [5]: 2020 nM | GI50 [6]: > 5000 nM | pIC50 [14]: 5.39 | GI50 [7]: 781 nM | pIC50 [11]: 8.51 | GI50 ([8]; BaF3 cells): > 5000 nM

COc1cc(OC)c(Cl)c(Nc2ncccc2-c2ncnc(Nc3cnn(C4CCOCC4)c3)n2)c1Cl
GI50 [1]: 5 nM | GI50 [2]: 6230 nM | pIC50 [9]: 8.60 | GI50 [5]: 1380 nM | GI50 [6]: 3160 nM | pIC50 [14]: 5.93 | GI50 [7]: 105 nM | pIC50 [11]: 7.86 | pIC50 [12]: 5.56 | GI50 ([8]; BaF3 cells): > 5000 nM

COc1cc(OC)c(Cl)c(Nc2ncccc2-c2ncnc(Nc3cnn(CCCN(C)C)c3)n2)c1Cl
GI50 [1]: 5 nM | GI50 [2]: 510 nM | pIC50 [9]: 8.92 | GI50 [5]: 189 nM | GI50 [6]: 897 nM | pIC50 [14]: 6.50 | GI50 [7]: 421 nM | pIC50 [11]: 8.40 | pIC50 [12]: 5.95 | GI50 ([8]; BaF3 cells): 2730 nM
